Measurements reported in article PMC7567792, “GPAHex-A synthetic biology platform for Type IV–V glycopeptide antibiotic production and discovery” (Nature Communications, 2020).
In brackets after ≈: the same amount, converted by molar mass.

Key:
Bacillus subtilis 168 = experiment: Antibacterial activity assay (bioassay) of fermentation extracts; type: cell-based; conditions: B. subtilis 168
Excerpt: Supplementary Fig. 4. Bioassay of corbomycin heterologous expression extracts against B. subtilis 168. Crude extracts from S. coelicolor M1154/pGP1529 strain do […]
from S. coelicolor M1154/pAMX4/pGP1529. […]
parental strain S. sp. WAC01529 are likely the result of uncharacterized compounds produced by this strain, as equivalent amounts of purified corbomycin as are present […]
Source data are provided as a Source Data file.
(1 picture or pasted object on this page, not shown here)

S. coelicolor M1154 = experiment: MIC, antibiotic susceptibility testing; type: cell-based; conditions: Bennett's media
Procedure: (§1) Antibiotic susceptibility was tested using standard procedures in Mueller-Hinton Broth for most strains. Enterococcus strains were grown in Brain Heart Infusion media (BHI; BD Biosciences). Streptomyces MICs were determined in Bennett’s media (10 g potato starch, 2 g casamino acids, 1.8 g yeast extract, 0.2 g KCl, 0.2 g MgSO4·7H2O, 0.24 g NaNO3, 4 mg FeSO4·7H2O, 1 L ddH2O, pH 6.8).

[1] = test system: S. coelicolor M1154/pAMX4/pGP6738; experiment: MIC, antibiotic susceptibility testing; type: cell-based; conditions: Bennett's media
Procedure: as §1

MRSA USA300 = type: cell-based, S. aureus; conditions: Mueller-Hinton Broth
Procedure: as §1

hVISA MRSA Mu3 = type: cell-based, S. aureus; conditions: Mueller-Hinton Broth
Procedure: as §1

[2] = test system: Vancomycin intermediate MRSA Mu50; type: cell-based, S. aureus; conditions: Mueller-Hinton Broth
Procedure: as §1

E. faecium ATCC29212 = type: cell-based; conditions: Brain Heart Infusion media
Procedure: as §1

B. subtilis 168 [3] = type: cell-based; conditions: Mueller-Hinton Broth
Procedure: as §1

E. coli BW25113 = type: cell-based; conditions: Mueller-Hinton Broth
Procedure: as §1

E. faecium ATCC19434 = type: cell-based; conditions: Brain Heart Infusion media
Procedure: as §1

[4] = test system: E. faecium ATCC70022 (VREA); type: cell-based; conditions: Brain Heart Infusion media
Procedure: as §1

[5] = test system: E. faecium ATCC51299 (VREB); type: cell-based; conditions: Brain Heart Infusion media
Procedure: as §1

S. aureus ATCC29213 = type: cell-based; conditions: Mueller-Hinton Broth
Procedure: as §1

[6] = test system: E. coli BW25113ΔbamBΔtolC; type: cell-based; conditions: Mueller-Hinton Broth
Procedure: as §1

S. venezuelae ATCC10712 = type: cell-based; conditions: Bennett's media
Procedure: as §1

[7] = amide linkage changed to an ester; cited from earlier work
Excerpt: Glycopeptide antibiotics (GPAs), such as vancomycin and teicoplanin (Fig. 1a), are microbial natural products (NPs) that are essential for the control of infections caused by Gram-positive pathogens. Vancomycin and teicoplanin inhibit bacterial cell wall biosynthesis by binding to the D-Alanine-D-Alanine terminating dipeptide of growing peptidoglycan and its extracellular precursors. Like all antibiotics, GPAs are vulnerable to resistance. Vancomycin resistance occurs through reprogramming of cell wall biosynthesis, mediated by a vanRSHAX resistance cassette that replaces the D-Ala-D-Ala te ...

[8] = test system: panel of indicator strains; experiment: MIC determination against a panel of indicator strains, comparison of Type V GPAs; type: cell-based
Procedure: as §1

LytD = experiment: Peptidoglycan autolysin digestion in vitro, LytD; type: biochemical, B. subtilis 168; conditions: LytD 10 µg/mL, 1 mg/mL B. subtilis PG, 200 mM NaCl, 50 mM MES-NaOH pH 5.5, 30 min preincubation, OD600, 37 °C, triplicate
Procedure: (§2) The muramidase mutanolysin was purchased from Sigma. The glucosaminidase domain from LytD was cloned from B. subtilis 168 into pET28 between NcoI and XhoI restriction sites for introduction of C-term 6× His. Construct was expressed from E. coli BL21(DE3) pLysS by inoculating 1 L of LB media 1:50 from an overnight culture, then growing at 37 °C until OD600 reached 0.6, at which time the cells were induced with 1 mM IPTG and grown for 18 h at 16 °C. Native LytD-6× His was purified by Ni-NTA affinity chromatography and cation exchange chromatography. Protein purity was >95% as assessed by SDS-PAGE analysis.
(§3) B. subtilis peptidoglycan for binding and digestion assays was prepared by harvesting the cells (OD600 0.6–0.7), boiled in 4% SDS, and washed and sonicated to break up sacculi, followed by α-amylase and DNase treatment, and digested with pronase overnight. The peptidoglycan was boiled in 2% SDS again, washed, and teichoic acids were hydrolysed with 1 M HCl. The peptidoglycan was washed with water to pH 6.0 and lyophilized to use. Peptidoglycan was digested under optimized conditions with either mutanolysin (20 µg/mL, 1 mg/mL PG, 20 mM sodium acetate, pH 6.5) or LytD (10 µg/mL, 1 mg/mL PG, 200 mM NaCl, 50 mM MES-NaOH, pH 5.5). […] The plate was covered with a clear, breathable film to prevent evaporation, and OD600 was tracked on a Tecan sunrise microplate reader shaking at 37 °C.

B. subtilis 168 [9] = experiment: Brightfield microscopy of cell morphology at sub-MIC; type: cell-based; conditions: B. subtilis 168 grown with sub-MIC (0.6× MIC, 3.2 µg/mL GP6738) to mid-log phase
B. subtilis 168 [10] = experiment: Cell lysis assay / growth tracking (OD600); type: cell-based
Procedure: Early exponential phase B. subtilis 168 (OD600 ~0.25) grown in LB media was dispensed 100 µL per well into a round bottom 96 well plate. Antibiotics were supplemented to the appropriate concentration, and where appropriate lytic agents were added (50 µg/mL fosfomycin, 100 µg/mL ampicillin, 100 mM sodium azide). The plate was covered with a clear, breathable film and OD600 was monitored on a Tecan sunrise microplate reader at 37 °Cwith shaking.

[11] = Peptidoglycan binding assay; parameters: species or system B. subtilis; conditions: 0.1 mg/mL GP6738 in water with 20% DMSO, PG 25:1 to 200:1 w/w, 1–2 h at 37 °C, unbound compound by HPLC
Procedure: To assess peptidoglycan binding, GP6738 was diluted to 0.1 mg/mL in water with 20% (v/v) DMSO to aid GP6738 solubility. For each 100 μL binding assay, B. subtilis peptidoglycan was added to 0 mg/mL, 2.5 mg/mL, 5 mg/mL, 10 mg/mL or 20 mg/mL for 0, 25:1, 50:1, 100:1 and 200:1 w/w ratios, respectively. Mixtures were incubated for 1–2 h at 37 °C, then centrifuged for 10 min to thoroughly pellet insoluble material, and the supernatant was removed for analysis. Samples were prepared for HPLC analysis by the addition of NH4OH to 0.01% (v/v), and 50 µL was injected on the HPLC. Analysis was performed using a Thermo Hypersil GOLD aQ C18 4.6 × 150 mm column and the following gradient at 0.8 mL/min, 40 °C: t = 0–2 min 0% solvent B, t = 10–13 min 65% solvent B, t = 14 min 0% solvent B (solvent A: 0.01% v/v NH4OH in water [pH 9.6] and solvent B: ACN).

mutanolysin = experiment: Peptidoglycan autolysin digestion in vitro, mutanolysin; type: biochemical; conditions: mutanolysin 20 µg/mL, 1 mg/mL B. subtilis PG, 20 mM sodium acetate pH 6.5, 30 min preincubation, OD600, 37 °C, triplicate
Procedure: as §2, §3

Compound	MIC (S. coelicolor M1154)	MIC [1]	MIC (MRSA USA300)	MIC (hVISA MRSA Mu3)	MIC [2]	MIC (E. faecium ATCC29212)	MIC (B. subtilis 168 [3])	MIC (E. coli BW25113)	MIC (E. faecium ATCC19434)	MIC [4]	MIC [5]	MIC (S. aureus ATCC29213)	MIC [6]	MIC (S. venezuelae ATCC10712)	also measured
Corbomycin	4 µg/mL	4 µg/mL	1 µg/mL	1 µg/mL	1 µg/mL	4 µg/mL	1 µg/mL	> 256 µg/mL	4 µg/mL	4 µg/mL	4 µg/mL	1 µg/mL	32 µg/mL	2 µg/mL	growth inhibition / zones of inhibition (Bacillus subtilis 168): do not give zones
CN[C@H](CC(C)C)C(=O)N[C@H]1C(=O)N[C@@H](CC(N)=O)C(=O)N[C@H]2C(=O)N[C@H]3C(=O)N[C@H](C(=O)N[C@H](C(=O)O)c4cc(O)cc(O)c4-c4cc3ccc4O)[C@H](O)c3ccc(c(Cl)c3)Oc3cc2cc(c3O[C@@H]2O[C@H](CO)[C@@H](O)[C@H](O)[C@H]2O[C@H]2C[C@](C)(N)[C@H](O)[C@H](C)O2)Oc2ccc(cc2Cl)[C@H]1O [Vancomycin]	256 µg/mL (≈ 177 µM)	256 µg/mL (≈ 177 µM)	1 µg/mL (≈ 0.69 µM)	2 µg/mL (≈ 1.38 µM)	8 µg/mL (≈ 5.52 µM)	2 µg/mL (≈ 1.38 µM)	0.25 µg/mL (≈ 0.173 µM)	256 µg/mL (≈ 177 µM)	2 µg/mL (≈ 1.38 µM)	> 256 µg/mL	32 µg/mL (≈ 22.1 µM)	1 µg/mL (≈ 0.69 µM)	8 µg/mL (≈ 5.52 µM)	0.25 µg/mL (≈ 0.173 µM)	decrease of affinity of vancomycin on change of D-Ala-D-Ala to D-Ala-D-Lactate [7]: 1000 fold
CC(C)C(NC(=O)C(NC(=O)C(N)c1cc(O)cc(O)c1)c1cc(O)cc(O)c1)C(=O)NC1Cc2c[nH]c3cc(ccc23)-c2cc3cc(c2O)Oc2ccc(cc2)CC(C(=O)NC(C(=O)O)c2cc(O)cc(O)c2)NC(=O)C(c2cc(O)cc(O)c2)NC(=O)C3NC(=O)C(c2cc(O)cc(O)c2)NC1=O (stereo not shown) [GP6738]	16 µg/mL (≈ 11.1 µM)	16 µg/mL (≈ 11.1 µM)	4 µg/mL (≈ 2.78 µM)	4 µg/mL (≈ 2.78 µM)	2 to 4 µg/mL	64 µg/mL (≈ 44.5 µM)	4 µg/mL (≈ 2.78 µM)	> 256 µg/mL	64 µg/mL (≈ 44.5 µM)	64 µg/mL (≈ 44.5 µM)	64 µg/mL (≈ 44.5 µM)	4 µg/mL (≈ 2.78 µM)	> 256 µg/mL	16 µg/mL (≈ 11.1 µM)	fold higher MIC of GP6738 compared to corbomycin [8]: 2–16 fold; block of peptidoglycan digestion by LytD (LytD): blocks cell wall digestion; cell morphology (B. subtilis 168 [9]): characteristic elongated cell morphology of autolysin inhibition; bacteriostatic or bacteriolytic effect, growth tracking (B. subtilis 168 [10]; B. subtilis 168, 10-fold MIC, OD600, 37 °C, n = 3): bacteriostatic phenotype; block of cell lysis induced by lytic agents (B. subtilis 168 [10]; B. subtilis 168, 10× MIC, 50 µg/mL fosfomycin, 100 µg/mL ampicillin or 100 mM sodium azide, OD600, n = 3): able to block cell lysis; binding to peptidoglycan [11]: binding to peptidoglycan; block of peptidoglycan digestion by mutanolysin (mutanolysin): blocks cell wall digestion
Complestatin	4 µg/mL		2 µg/mL	0.5 µg/mL	0.5 µg/mL	32 µg/mL	0.5 µg/mL	> 256 µg/mL	64 µg/mL	64 µg/mL	32 µg/mL	2 µg/mL	64 µg/mL	2 µg/mL	
